From US12480163B2, “Compositions and methods for identification assessment, prevention, and treatment of Ewing sarcoma using TP53 dependency biomarkers and modulators” (Dana-Farber Cancer Institute, Inc., priority 2018, dated 2025)
“Also recorded” adds a separate entry of the source.

Columns and labels:
[1] = test system: TP53 wild-type Ewing sarcoma cell lines; assay: Annexin V staining, flow cytometry (cell death); type: cell-based; details: TC32 and CHLA258; 2 d ATSP-7041 (2 μM, 4 μM) or P5091 (6.5 μM, 8 μM), 3 d GSK2830371 (15 μM)
Method: Cell death was measured using flow cytometric analysis of Annexin V staining according to the manufacturer's instructions (eBioscience). Data analysis was completed using Flowjo 7.6 software (Treestar).

[2] = test system: MDM2, p53, and p21 protein levels; assay: Western immunoblotting of MDM2, p53, p21 in TP53 wild-type Ewing sarcoma cell lines; type: cell-based
Method: (§1) Whole-cell lysates were extracted in cell lysis buffer (Cell Signaling) supplemented with EDTA-free protease inhibitors and PhosSTOP™ phosphatase inhibitors (Roche). Western immunoblotting was performed using standard techniques. Primary antibodies used included anti-MDM2 (ab178938; Abcam), anti-MDM2 (86934; Cell Signaling), anti-MDM4 (A300-287A; Bethyl Laboratories), anti-p53 (2527S; Cell Signaling), anti-p21 (2946S; Cell Signaling), anti-Vinculin (18058; Abcam), anti-Wip1 (A300-664A; Bethyl Laboratories), anti-pSer15-p53 (9284; Cell Signaling), anti-USP7 (A300-033A; Bethyl Laboratories), and anti-Tubulin (cp06; CalBiochem).

PDX tumor tissues = assay: Pharmacodynamics study in PDX tumor tissue (Western blot, quantitative PCR); type: in vivo, mice; details: PDX HSJD-ES-002, three doses 30 mg/kg q.o.d.
Method: as §1
RNA was extracted from cells with the RNeasy® kit and on-column DNA digestion (Qiagen). cDNA was prepared using M-MLV reverse transcription (ThermoFisher Scientific). TaqMan™ Gene Expression Master Mix (Applied Biosystems) was used per the manufacturer's protocol. TaqMan™ probes included RPL13A (Hs04194366_g1; ThermoFisher Scientific), CDKNIA (Hs00355782_m1; Thermo Fisher Scientific), and MDM2 (Hs01066930_m1; ThermoFisher Scientific). Data were collected in triplicate and analyzed using the ΔΔCT method.
For pharmacodynamics studies, tumor xenografts were established in six nude female mice by implanting three million TC32 cells or PDX tumor fragments into the right flank. Animals were randomized to either ATSP-7041 (n=3) or vehicle treatment (n=3). […]

[3] = test system: TP53 wild-type Ewing sarcoma cell lines; assay: CellTiter-Glo cell viability assay, TP53 wild-type Ewing sarcoma cell lines; type: cell-based; details: TP53 wild-type Ewing sarcoma cell lines, treated for 3 d, micromolar concentrations
Method: Cell viability was assessed using the CellTiter-Glo® Luminescent Cell Viability Assay (Promega). Viability assays were performed after Ewing sarcoma cell lines were infected with sgRNAs targeting TP53, MDM2, MDM4, PPM1D, or USP7 or treated with ATSP-7041, ATSP-7342, GSK2830371, P5091, XL-188, or vehicle control.

TC32 xenograft tumors = assay: TC32 Ewing sarcoma xenograft anti-tumor efficacy study; type: in vivo, mice; details: 30 mg/kg IV every other day for 20 d (10 doses) vs vehicle
Method: j. Ewing Sarcoma Xenograft Studies
For anti-tumor efficacy studies, tumor xenografts were established in 15 nude female mice by implanting three million TC32 cells into the right flank. Animals were randomized to either 20 d of treatment with 30 mg/kg q.o.d. IV ATSP-7041 (n=8) or vehicle (n=7) for a total of 10 doses. Treatment was started when tumors reached 100-200 mm3. Tumor volumes were measured with calipers twice a week. For PDX studies, tumor fragments were implanted into the right flank of nude female mice by minor surgery. After tumor engraftment, studies were performed as described for TC32 xenograft studies.
For in vivo studies, ATSP-7041 was prepared using the following protocol: mPEG-DSPE (Nanocs) was dissolved in chloroform and dried by a rotary evaporator. ATSP-7041 was dissolved in 1 M NaOH and diluted 100-fold in 10 mM histidine-buffered saline to a final concentration of 3 mg/ml. This mixture was added to the dried lipid film to a final mPEG-DSPE concentration of 50 mg/ml and final pH 7. The film was rehydrated by brief sonication and heating in a 50° C. water bath. The mixture was then subjected to five freeze-thaw cycles in liquid nitrogen and 40° C. water, respectively, and the solution passed 10 times through an Avanti Mini-Extruder Set (Avanti Polar Lipids) equipped with a 800-nm filter (Whatman).

p53-MDM4 complex = biological target: T1, p53-MDM4 complex (Homo sapiens, UniProt O15151); assay: MDM4 immunoprecipitation from TC32 cell lysates, p53 and MDM4 Western blot; type: binding; details: TC32 lysates after RG7388 pre-treatment, 20 μM compound
T1 construct: endogenous in cells; host or cells: TC32 Ewing sarcoma cells (TP53 wild-type), lysed in NP-40 buffer
T1 sequence (O15151 1-490): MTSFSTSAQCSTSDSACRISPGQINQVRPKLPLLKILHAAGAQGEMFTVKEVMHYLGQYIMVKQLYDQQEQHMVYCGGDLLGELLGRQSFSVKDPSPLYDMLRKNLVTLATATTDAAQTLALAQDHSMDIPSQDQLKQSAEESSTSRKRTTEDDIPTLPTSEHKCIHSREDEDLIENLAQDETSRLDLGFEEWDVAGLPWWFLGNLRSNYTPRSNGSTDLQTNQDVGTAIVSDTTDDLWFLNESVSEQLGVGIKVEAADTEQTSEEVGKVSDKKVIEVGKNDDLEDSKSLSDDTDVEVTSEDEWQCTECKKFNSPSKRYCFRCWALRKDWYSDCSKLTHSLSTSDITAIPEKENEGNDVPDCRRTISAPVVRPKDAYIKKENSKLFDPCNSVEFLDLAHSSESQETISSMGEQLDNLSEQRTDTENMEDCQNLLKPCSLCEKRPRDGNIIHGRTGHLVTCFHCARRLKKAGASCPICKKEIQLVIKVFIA
Method: g. Immunoprecipitation Experiments
Five million TC32 cells were treated with either 10 μM RG7388 or vehicle control for 4 h. Cells were lysed in buffer A (150 mM NaCl, 50 mM Tris, and 0.5% NP-40, pH 7.4) and combined with anti-MDM4 antibody (A300-287A; Bethyl Laboratories) in the presence of 20 μM RG7388, ATSP-7041, or vehicle control in a total volume of 1 ml, rotating at 4° C. for 16 h. Subsequently, 50 μl washed Protein AG beads (sc-2003; Santa Cruz) were added and the mixture was incubated for 1 h rotating at 4° C. Beads were washed three times in buffer A, and protein complexes were eluted by boiling in NuPage® LDS Sample Buffer (NP0007; Invitrogen) supplemented with DTT. Samples were analyzed by Western blot with antibodies against p53 DO-1 (sc-126; Santa Cruz) and MDM4 (A300-287A; Bethyl Laboratories).

CC(=O)N[C@@H](CC(C)C)C(=O)N[C@H](C(=O)N[C@@H](Cc1ccccc1)C(=O)N[C@]1(C)CCCCCCC=CCCC[C@@](C)(C(=O)N[C@@H](CO)C(=O)N[C@@H](C)C(=O)N[C@@H](C)C(N)=O)NC(=O)[C@H](CC2CCC2)NC(=O)[C@H](CCC(N)=O)NC(=O)[C@H](C)NC(=O)[C@H](Cc2c[nH]c3ccccc23)NC(=O)[C@H](Cc2ccc(O)cc2)NC(=O)[C@H](CCC(=O)O)NC1=O)[C@@H](C)O [ATSP-7041, Ac-Leu17-Thr-Phe-cyclo(R8-Glu-Tyr-Trp-Ala-Gln-Cba-S5)-Ser-Ala-Ala30-NH2]
cell death measured by Annexin V staining [1]: triggers cell death; also recorded: induction of cell death
p53 protein levels, combination of ATSP-7041 and doxorubicin ([2]; TC32 cells, 2 d): greatly increased p53 protein levels
p53 protein levels, combination of ATSP-7041 and etoposide ([2]; TC32 cells, 2 d): greatly increased p53 protein levels
p53 protein levels, combination of ATSP-7041 and vincristine ([2]; TC32 cells, 2 d): greatly increased p53 protein levels
MDM2, p53, and p21 protein levels ([2]; TP53 wild-type Ewing sarcoma cell lines, Western blot): increased protein levels of MDM2, p53, and p21; also recorded: Concentration-dependent increases
p53 pathway protein levels in tumor tissue (PDX tumor tissues; 8 h after last dose): increase of MDM2, p53, and p21 protein levels; also recorded: increased intratumoral p53 and p21 protein levels
MDM2 and p21 mRNA levels in tumor tissue (PDX tumor tissues; quantitative PCR): increase of MDM2 mRNA levels; also recorded: increase of p21 mRNA levels; also recorded: increased MDM2 and p21 mRNA levels
cell viability, normalized to vehicle control [3]: selectively reduced the viability
tumor growth (normalized tumor volume) (TC32 xenograft tumors): significantly suppressed tumor growth
disruption of p53-MDM4 complex (MDM4 immunoprecipitation) (p53-MDM4 complex): partial disruption of p53-MDM4 complex; also recorded: decreased the level of p53-MDM4 interaction
